Results: patent US20060154990A1, “Use of MEK inhibitors in treating abnormal cell growth” (AGOURON PHARMACEUTICALS, INC., priority 2004, published 2006)
Values joined by “and” are separate entries in the source; they are usually repeats but may differ in a detail not shown here. Identical values can stand only once.

What was measured:
[1] = Metabolites of [14C] Compound 1 in liver microsomes; type: in vitro ADME, rat; conditions: [C-14] Compound 1 10 μM, 90 mins
Procedure: (§1) Incubations were performed in hepatocytes for 3 hours and liver microsomes for 1.5 hours and were stopped with the addition of methanol. HPLC, in conjuction with ionspray 3D iontrap mass spectrometry, and simultaneous radioactive monitoring were used to detect and identify the resulting metabolites.
(§2) This acid cleavage product is further metabolized to form hydroxylated (M 11, 16% in rat) and hydroxylated, defluorinated products (M 17, 19% in rat).

[2] = Metabolites of [14C] Compound 1 in cryopreserved hepatocytes; type: in vitro ADME, dog; conditions: [C-14] Compound 1 10 μM, 180 mins
Procedure: as §1
(§3) Metabolite identification of radiolabeled Compound 1 was performed after incubation with rat, dog, monkey and human cryopreserved hepatocytes and liver microsomes. […] Besides glucuronidation, metabolites derived from other clearance pathways are also observed. For instance, M 15 (acid cleavage product) accounts for 11% of the total radioactivity in the human chromatogram.

[3] = Metabolites of [14C] Compound 1 in liver microsomes; type: in vitro ADME, monkey; conditions: [C-14] Compound 1 10 μM, 90 mins
Procedure: as §1, §2

[4] = test system: ERK phosphorylation in tumor cells; experiment: ERK phosphorylation in tumor cells grown in culture with 10% serum; type: cell-based; conditions: tumor cells in culture, 10% serum; read-out: IC50, reducing ERK phosphorylation
[5] = Metabolites of [14C] Compound 1 in liver microsomes; type: in vitro ADME, dog; conditions: [C-14] Compound 1 10 μM, 90 mins
Procedure: as §1, §2

MEK1 = MEK1 (Homo sapiens, UniProt Q02750); experiment: Cascade assay with raf-1, MEK1 and ERK1 (DELFIA readout); type: biochemical; conditions: purified MEK1, cascade assay raf-1/MEK1/ERK1; read-out: MEK enzyme IC50
MEK1, sequence (Q02750 whole entry, species assumed): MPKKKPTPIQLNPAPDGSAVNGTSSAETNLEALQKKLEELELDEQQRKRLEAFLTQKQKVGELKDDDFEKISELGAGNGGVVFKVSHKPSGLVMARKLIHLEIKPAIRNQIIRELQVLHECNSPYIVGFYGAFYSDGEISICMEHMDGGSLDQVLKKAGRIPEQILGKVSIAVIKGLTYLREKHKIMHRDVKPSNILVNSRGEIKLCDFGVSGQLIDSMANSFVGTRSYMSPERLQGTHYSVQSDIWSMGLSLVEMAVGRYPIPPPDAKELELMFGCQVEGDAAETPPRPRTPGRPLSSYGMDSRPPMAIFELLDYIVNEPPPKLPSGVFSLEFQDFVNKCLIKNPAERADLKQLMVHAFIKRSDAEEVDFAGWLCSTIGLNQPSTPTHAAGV

pERK in C26 tumors = experiment: Tumor pERK inhibition and PK-PD in C26 tumor-bearing mice; type: in vivo; conditions: C26 tumor-bearing animals
[6] = Metabolites of [14C] Compound 1 in cryopreserved hepatocytes; type: in vitro ADME, human; conditions: [C-14] Compound 1 10 μM, 180 mins, listed as M 15
Procedure: as §1, §3

[7] = as above; type: in vitro ADME, rat; conditions: [C-14] Compound 1 10 μM, 180 mins
Procedure: as §1, §3

[8] = as above; type: in vitro ADME, monkey; conditions: [C-14] Compound 1 10 μM, 180 mins
Procedure: as §1, §3

[9] = Plasma pharmacokinetics after multiple oral doses in advanced cancer patients; conditions: for AUC of Compound 2 as % of the parent (median): human plasma
Procedure: Pharmacokinetic data are presented for the first 38 subjects.
Blood samples were collected from patients into a purple-top potassium EDTA Vacutainer tube. Following mixing with gentle inversion (8-10 times), tubes were centrifuged within 20 minutes at 1000×g for 15 minutes, to harvest plasma. Plasma samples were stored at −20° C. until analysis.
The following results are based on preliminary pharmacokinetic parameters from the 38 subjects, estimated using nominal collection times and quality-controlled, non quality-assured bioanalytical data. Pharmacokinetic parameters were determined by the non-compartmental method using WINNONLIN Professional Edition (Version 4.1). […] The maximum observed concentration (Cmax) was obtained by inspection of the concentration data. The time to reach the Cmax was the first time at which Cmax is observed and obtained by inspection of the data. The pre-dose concentration (Ctrough) was obtained by inspection of the concentration data.

[10] = Metabolites of [14C] Compound 1 in liver microsomes; type: in vitro ADME, human; conditions: [C-14] Compound 1 10 μM, 90 mins, listed as M 15
Procedure: as §1, §2

[11] = test system: ERK phosphorylation in colon 26 cells; experiment: cells; conditions: Mus musculus, Colon 26, read-out: Cellular activity IC50

SMILES	% ROI Rat [1] [%]	% ROI Dog [2] [%]	% ROI Monkey [3] [%]	IC50 [4] [nM]	% ROI Dog [5] [%]	IC50 (MEK1) [nM]	target suppression of pERK in tumors (pERK in C26 tumors; 2 hours after 75 mg/kg IV) [%]	pERK activity in tumors (pERK in C26 tumors; 24 hours after 75 mg/kg IV)	% ROI Human [6]	% ROI Rat [7] [%]	% ROI Monkey [8] [%]	increase of AUC of Compound 2 ([9]; after 21-day multiple BID dosing of Compound 1)	AUC of Compound 2 as % of the parent (median) ([9]; multiple dosing of Compound 1) [%]	AUC of Compound 2 as % of the parent (median) ([9]; single dosing of Compound 1)	terminal plasma half-life compared with parent ([9]; patients, after oral Compound 1)	% ROI Human [10]	IC50 [11] [nM]
O=C(O)c1ccc(F)c(F)c1Nc1ccc(I)cc1F [Compound 2]	1.86	2.46	5.24	1300	4.12	66	98	returned to control levels	11% and 11.07%	4.31	1.72	2.0-5.0 fold	~120	approximately 66%	longer than that of the parent drug	9% and 8.73%	
O=C(NOC[C@@H](O)CO)c1ccc(F)c(F)c1Nc1ccc(I)cc1F [Compound 3]																	0.83
